In patent publication US8829035B2, “Agent for treatment or prevention of diseases associated with activity of neurotrophic factors” (Sumitomo Chemical Company, Limited, priority 2009, dated 2014):

Test system: rats with streptozotocin-induced diabetes
Assay: Motor nerve conduction velocity (MNCV) in sciatic nerves of rats with streptozotocin-induced diabetes
Type: in vivo, Slc:Wistar rats
Details: 5 mL/kg of 10 mg/mL drug solution orally once per day for 4 weeks, compared to solvent administration control group
Experimental: The preventative effect of the compounds on the prolongation of latency of the motor nerve conduction velocity (MNCV) were studied in the sciatic nerves of rats with streptozotocin-induced diabetes.
The groups were structured as a non-diabetes control group, a diabetes control group, and a drug administration group. After 8 days of convention rearing, the 8-week male Slc:Wistar rats in the respective groups were given 2 mL/kg of pH 4.5, 0.75 mmol/L citrate buffer solution (non-diabetes control group), or 2 mL/kg of a solution prepared from […] of streptozotocin (chemical name: N-(methylnitrosocarbamoyl)-α-D-glucosamine; manufacturer: SIGMA) in 0.75 mmol/L citrate buffer solution (diabetes control group and drug administration group), single administration in the caudate vein. After 4 more weeks of rearing, the animals in the non-diabetes control group and the diabetes control group were given 5 mL/kg of water for injection, while the animals in the drug administration group were given 5 mL/kg of a drug solution prepared from 10 mg/mL of the drug in water for injection. Administration for all groups was orally once per day for 4 weeks. MNCV measurements were carried out 3 times for each group. […]

| Compound | motor nerve conduction velocity (MNCV) |
| --- | --- |
| Cc1nc2cc(-c3nc4ccccc4o3)ccc2n1C1CCOCC1 [Ex. 12, 5-(benzoxazol-2-yl)-2-methyl-1-(tetrahydropyran-4-yl)benzimidazole methanesulfonate] | recovery of motor nerve conduction velocity was observed |

Test system: middle cerebral artery occlusion/reperfusion model
Assay: Middle cerebral artery occlusion/reperfusion model, infarct volume
Type: in vivo, C57BL/6J mice
Details: mice, 90 minutes occlusion; 30 mg/kg via the caudate vein at 3, 24 and 48 hours after occlusion; brains taken 3 days after occlusion/reperfusion
Experimental: A middle cerebral artery occlusion/reperfusion model was prepared by taking 8-week male C57BL/6J mice after 12 days convention rearing, and ligating the left and external common carotid arteries, then recanalizing them after the middle cerebral artery had been occluded for a period of 90 minutes. In this model, the compounds were administered at 3, 24, and 48 hours after occlusion as 30 mg/kg via the caudate vein. The animals were decapitated 3 days after the occlusion/reperfusion, the skulls were cut open from the cerebellar side and the brain was extracted. The extracted brains were fixed with Bouin's solution (pH 3.5-4.0). […] The infarct volumes were then calculated as shown below.
Optical microscope: digital images were taken using an optical microscope (object lens×1) that was fitted with a camera (MCD-350, Olympus). […] Based on the images pasted into the page mounts, the infarct areas (S, mm^2), lateral (left) infarct areas (mm^2) and lateral (right) non-infarct areas (MR, mm^2) were measured using an image analysis system (Win ROOF v. 5.6, Mitani), and the non-infarct areas for the left-side infarcts (ML, mm^2) [lateral (left) infarct area (mm^2)−infarct area (mm^2)] were calculated.
Using the equations below, the infarct volumes (SV, mm^3), non-infarct volumes for the left-side infarcts (MLV, mm^3), and the lateral (right) non-infarct volumes (MRV, mm^3) were calculated. […]

| Compound | infarct volume |
| --- | --- |
| Cc1nc2cc(-c3nc4ccccc4o3)ccc2n1C1CCOCC1 [Ex. 12, 5-(benzoxazol-2-yl)-2-methyl-1-(tetrahydropyran-4-yl)benzimidazole methanesulfonate] | reductions in the infarct volumes were confirmed |

Test system: activity of 200 ng/mL of NGF (NXF promoter-driven luciferase in PC12 cells)
Assay: Luciferase reporter assay (NXF promoter) in PC12 cells: potentiation of NGF activity
Type: cell-based, rat
Design: key: +: Showed relatively weak potentiation (potentiation only exhibited at 10 μM); ++: Showed potentiation; +++: Showed particularly strong potentiation (2-fold or greater potentiation of the activity of 200 ng/mL of NGF at 1 μM)
Details: Test Example 1, relative luciferase activity vs 200 ng/mL NGF alone, overnight (approx. 16 hours)
Experimental: The forward primer 5′-[…]-3′ and the reverse primer 5′-[…]-3′ were prepared as the PCR primers according to the sequence information for the NXF gene genome sequence (Accession Nos. AB054577 and NC—000085), and the PCR method was used to isolate from approximately 5 kbp upstream from the translated region of the NXF gene promoter portion to the vicinity of the transcription start site. For this, 1 μg of mouse genomic DNA (Takara) was used as the template, and the 2-step PCR reaction was carried out for 35 cycles, the conditions for which were 95° C./1 m in the denaturing step, and 68° C./8 m in the annealing and extension steps, to obtain the PCR product. The NXF promoter fragment was inserted into the SmaI site of the pGL3 Basic vector (Promega) in the upstream of luciferase gene to prepare a reporter plasmid that would express the luciferase enzyme driven by the NXF promoter.
PC12 cells (available from the ATCC) were cultured using RPMI medium (GIBCO-BRL) with 5% FCS (GIBCO-BR) and 15% horse serum (GIBCO-BRL) added, and 1 mM in sodium pyruvate (GIBCO-BRL), at 37° C. in the presence of 5% CO2. After transfection in 10^6 of these PC12 cells for 2 days with 12 μg of the above-described reporter plasmid and 1 μg of pRC/RSV vector (Invitrogen) using the Lipofectamine 2000 reagent (Invitrogen), the medium was exchanged for fresh medium containing 40 mg/L of geneticin sulfate (GIBCO), and this was cultured continuously. Culturing was continued for approximately 1 month with medium exchange of the cultured medium containing 40 mg/L of geneticin sulfate (GIBCO) every several days, with the result that multiple colonies of the obtained cells were picked up. Among these, one of the colonies that induced luciferase activity in the presence of 40 ng/mL of NGF (Wako Pure Chemicals) was selected and used for the cells to evaluate the activity of the compounds below.
These cells were set up in 96-well plates with 80% confluence, and the luciferase reporter assay was conducted using the Promega Steady Glo luciferase assay kit. The procedure was carried out overnight (approx. 16 hours) using culture medium containing the compound, and the Steady Glo substrate solution was added to the cells in half-diluted in PBS after removal of all remaining medium containing the compound. After this was allowed to stand for 30 minutes, the respective quantity of light produced was measured with a luminometer (Envision Perkin Elmer).
The activity of the compounds for evaluation was measured as the potentiation of the activity of 200 ng/mL of NGF. For the experiment control wells, the negative control well had medium containing only a final concentration of 0.1% DMSO, the positive control well had medium containing a saturation concentration of NGF. In addition, a test well was set up containing 0.1% DMSO with 200 ng/mL of NGF added corresponding to a 0 compound concentration. When its luciferase activity was taken as a standard, the relative luciferase activity could be calculated for the test wells to which the compound solution (dissolved in DMSO and prepared to have a final DMSO concentration of 0.1%) had been added in addition to the 200 ng/mL of NGF, to find the potentiation of the activity of 200 ng/mL of NGF due to that compound.

| Compound | Activity (potentiation of NGF activity) |
| --- | --- |
| Cc1nc2cc(-c3cc4ccccc4[nH]3)ccc2n1C1CCOCC1 [Ex. 38, 5-(indol-2-yl)-1-(tetrahydropyran-4-yl)-2-methylbenzimidazole] | ++ |
| FC(F)(F)c1nc2cc(-c3nc4ccccc4o3)ccc2n1C1CCOCC1 [Ex. 27, 5-(benzoxazol-2-yl)-1-(tetrahydropyran-4-yl)-2-trifluoromethylbenzimidazole] | ++ |
| Cc1nc2cc(-c3nc4ccccc4o3)ccc2n1C1CCCCC1 [Ex. 16, 5-(benzoxazol-2-yl)-1-cyclohexyl-2-methylbenzimidazole] | ++ |
| c1cncc(-c2nc3cc(-c4nc5ccccc5o4)ccc3n2C2CCOCC2)c1 [Ex. 24, 5-(benzoxazol-2-yl)-2-(3-pyridyl)-1-(tetrahydropyran-4-yl)benzimidazole] | ++ |
| COCc1nc2cc(-c3nc4ccccc4s3)ccc2n1C1CCOCC1 [Ex. 6, 5-(benzothiazol-2-yl)-2-methoxymethyl-1-(tetrahydropyran-4-yl)benzimidazole] | ++ |

Same assay, conditions: Test Example 4, same manner as Test Example 1, relative luciferase activity vs 200 ng/mL NGF alone

| Compound | Activity (potentiation of NGF activity) |
| --- | --- |
| CSCCc1nc2cc(-c3nc4ccccc4o3)ccc2n1C1CCOCC1 [Ex. 133, 5-(benzoxazol-2-yl)-2-(2-(methylthio)ethyl)-1-(tetrahydropyran-4-yl)benzimidazole] | ++ |
| Cc1nc2cc(-c3nc4ccccc4o3)ccc2n1CC1CCOCC1 [Ex. 84, 5-(benzoxazol-2-yl)-2-methyl-1-((tetrahydropyran-4-yl)methyl)benzimidazole] | ++ |
| c1ccc2oc(-c3ccc4c(c3)nc(C3CCCO3)n4C3CCOCC3)nc2c1 (centres unmarked) [Ex. 90, 5-(benzoxazol-2-yl)-2-(tetrahydrofuran-2-yl)-1-(tetrahydropyran-4-yl)benzimidazole] | ++ |
| c1ccc2oc(-c3ccc4c(c3)nc(-c3ccoc3)n4C3CCOCC3)nc2c1 [Ex. 64, 5-(benzoxazol-2-yl)-2-(furan-3-yl)-1-(tetrahydropyran-4-yl)benzimidazole] | ++ |
| c1ccc(CCc2nc3cc(-c4nc5ccccc5o4)ccc3n2C2CCOCC2)cc1 [Ex. 68, 5-(benzoxazol-2-yl)-2-(2-phenylethyl)-1-(tetrahydropyran-4-yl)benzimidazole] | ++ |
| Cc1nc2cc(-c3nc4ccccc4o3)ccc2n1CCS(C)(=O)=O [Ex. 132, 5-(benzoxazol-2-yl)-1-(2-(methylsulfonyl)ethyl)-2-methylbenzimidazole] | ++ |
| c1ccc2oc(-c3ccc4c(c3)nc(CC3CCOCC3)n4C3CCOCC3)nc2c1 [Ex. 111, 5-(benzoxazol-2-yl)-1-(tetrahydropyran-4-yl)-2-(tetrahydropyran-4-yl)methylbenzimidazole] | ++ |
